Where two headings read alike, the source gives them in different places. Bridge positions count the residues as written; N and C are the ends. Square brackets hold non-standard residues; d marks the D form. Ends that are not written are not given here. d1Nal = N[C@H](Cc1cccc2ccccc12)C(=O)O; AllylGly = C=CC[C@H](N)C(=O)O
Tests used:
hAPJ receptor [1] = target: T1, hAPJ receptor (Homo sapiens, UniProt P35414); assay: BRET-based Gαi1 activation assay in HEK293 cells; format: cell-based; conditions: for Emax: HEK293, Table V, read-out: Gαi1 Emax
T1 construct: expressed in transfected cells; host or cells: HEK293, transient transfection with PEI
T1 sequence (P35414 1-380): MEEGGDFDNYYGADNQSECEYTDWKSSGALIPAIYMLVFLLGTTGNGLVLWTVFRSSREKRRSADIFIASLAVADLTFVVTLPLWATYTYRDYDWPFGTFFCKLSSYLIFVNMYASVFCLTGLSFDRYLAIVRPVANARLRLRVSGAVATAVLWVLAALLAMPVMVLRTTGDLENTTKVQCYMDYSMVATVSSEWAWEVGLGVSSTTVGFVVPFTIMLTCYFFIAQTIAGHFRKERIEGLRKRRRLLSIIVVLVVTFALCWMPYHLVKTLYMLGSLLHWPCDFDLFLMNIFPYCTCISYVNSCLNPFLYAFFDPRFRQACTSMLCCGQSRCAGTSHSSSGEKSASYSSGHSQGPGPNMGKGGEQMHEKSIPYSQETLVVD
Method in brief: (§1)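 HEK293 cells in HBSS stimulated with analogs from 10^−5 to 10^−11 M, 5 min at 37 °C (Gαi1) or 30 min at room temperature (β-arrestin2).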

hAPJ receptor [2] = target: T1, hAPJ receptor; assay: BRET-based β-arrestin2 recruitment assay in HEK293 cells; format: cell-based; conditions: for Emax: HEK293
Method in brief: as §1

[3] = test system: anesthetized male Sprague-Dawley rats; assay: In vivo blood pressure measurement; design: species or system rat; conditions: i.v. bolus, doses 19.6 and 65 nmol/kg
Procedure: The animal experimental protocols were approved by the Animal Care Committee of Université de Sherbrooke and complied with policies and directives of the Canadian Council on Animal Care.
Male Sprague-Dawley rats (8-10 weeks of age) were anesthetized with ketamine/xylazine injection (87/13 mg/kg i.m.) and placed in supine position on a thermostatic pad. Their right carotid artery was catheterized with PE 50 (filled with heparinized saline), connected to a Micro-Med transducer (model TDX-300, Calabasas, USA) and Micro-Med blood pressure analyzer (model BPA-100c). […] This i.v. catheter was flushed with saline (0.2 mL) immediately after each injection.

[4] = target: human APJ (transfected HEK293 cells, Gαi1 BRET assay) (human) (UniProt P35414); assay: cell-based or functional assay
[5] = target: T2, YFP-tagged human APJ receptor (human, UniProt P35414 1-380); assay: competitive radioligand binding, HEK293-hAPJ membranes
T2 construct: whole, on cells; also called hAPJ; APJ WT; not shown: YFP tag
T2 sequence (looked up): T1 sequence (P35414 1-380)

[6] = Rat plasma stability (half-life in vitro); format: in vitro ADME; conditions: rat plasma; for half-life at […]: male, Sprague-Dawley, rat, plasma
Procedure: Plasma was obtained from male Sprague-Dawley rats by collecting blood in heparin tube and centrifugating at 13,000 rpm to remove blood cells. The isolated plasma was stored at −80° C. and thawed right before the test. In 96-well plate, 6 μL of peptide solution at 1 mM was incubated with 27 μL of plasma at 37° C. in an oven equipped with orbital shaker. Tightly fitted caps were used to seal the wells to avoid water evaporation during incubation. […] A 96-well UPLC plate was put at the bottom to collect the samples. Both plates were centrifuged at 500 g for 10 min at 4° C. to accelerate the filtration. […] The quantity of remaining peptide was plotted into an exponential one-phase decay curve using GraphPad Prism 8 which allowed to calculate peptide half-life. The results were presented as mean±SEM of at least 3 independent experiments, each done in simplicate.
The percentage of remaining analogue was calculated by doing the ratio between AU of compound and AUC of internal standard. Half-lives were extrapolated from curves.

in vivo = conditions: for AUC: male Sprague-Dawley rats
Procedure: Male Sprague-Dawley rats of 8-10 weeks were used in this study. […] Animals were placed in a containment chamber prior to i.v. injection to facilitate blood sampling. […] Those samples were immediately stored on crushed ice before being centrifuged at 13000 rpm for 5 min at 4° C. to isolate plasma (upper layer). The resultant plasma was transferred to polypropylene tubes, and immediately frozen at −80° C.
A combination of a protein precipitation and a solid phase extraction step were used to extract the peptides. Plasma sample was defrosted on ice. After vortex agitation (60 s), 100 μL sample was withdraw and 300 μL cold acetonitrile was added to precipitate the plasma proteins. The sample was then vortex (60 s) and centrifuged at 4500 rpm at 4° C. during 10 min. The supernatant was then isolated and directly pass through an HLB prime for additional clean up. The filtrate was diluted 10 times in 0.1% formic acid/water and filtered through a 0.22 μm syringe filter before LC/MS/MS analysis.
Samples were analyzed on a Sciex Qtrap 6500+ equipped with a microflow liquid chromatography (Eksigient M3 microflow) and a UPLC HSS-T3 column (1 mm×100 mm, 1.8 μm, equipped with a 0.2 μm fritted pre-filter). The solvent flow rate was set to 50 μL/min, the column temperature was kept at 40° C. and the injection volume was 3 μL. The mobile phase was 0.1% formic acid/water (A) and 0.1% formic acid/acetonitrile (B). The elution gradient starts with 2% of eluent B, increasing to 95% in 8 min, maintaining at 95% for 2 min and then back to initial conditions in 2 min for a total run time of 13 min. […] Analysis used two daughter traces (transitions), among them, the most abundant was for quantification and the second most abundant for confirmation.

Sprague-Dawley rats = assay: Echocardiography (cardiac performance) after s.c. injection; conditions: for effect on fractional shortening (FS) and cardiac output (CO): s.c. 0.2 μmol/kg, three hours after injection
[7] = target: T3, human APJ (transfected HEK293 cells, Gαi1 BRET assay) (human, UniProt P35414 1-380); assay: cell-based or functional assay
T3 sequence (looked up): T1 sequence (P35414 1-380)

[8] = male, Sprague-Dawley, rat, plasma, iv, 3 mg/kg

Molecule | Emax (hAPJ receptor [1]) [%] | Emax (hAPJ receptor [2]; Table V, read-out: ß-arr2 Emax) [%] | Emax (hAPJ receptor [2]; read-out: β-arr2 Emax) [%] | ΔMABP (drop in blood pressure) [3] [mmHg] | AUC (in vivo; i.v. 3 mg/kg) | effect on fractional shortening (FS) and cardiac output (CO) (Sprague-Dawley rats) | other results
CCCC[C@H](NC(=O)[C@@H]1CCCN1C(=O)CNC(=O)[C@H](CCCCN)NC(=O)[C@@H]1CC=CC[C@H](N)C(=O)N[C@@H](CCCNC(=N)N)C(=O)N[C@@H](CC(C)C)C(=O)N[C@@H](CO)C(=O)N1)C(=O)N1CCC[C@H]1C(=O)N[C@@H](Cc1ccccc1)C(=O)O [Compound 20, NH2-c[X-R-L-S-X]c-K-G-P-Nle-P-F] | 100 | 98 | 98 | −27 | – | – | –
Ac-Ape17-Met15Nle (KT03-12) (peptide) | – | – | – | – | – | – | EC50 Gαi1 [4]: 2.88 nM; Ki [5]: 0.15 nM
CC(C)C[C@@H]1NC(=O)[C@H](CCCNC(=N)N)NC(=O)[C@@H](N)CC=CC[C@@H](C(=O)N[C@@H](CCCCN)C(=O)NCC(=O)N2CCC[C@H]2C(=O)N[C@H](Cc2ccc3ccccc3c2)C(=O)O)NC(=O)[C@H](CO)NC1=O [Compound 43, NH2-c[X-R-L-S-X]c-K-G-P-(D-2Nal)] | 105 | 55 | 55 | – | 8.80 ± 0.41 min*(mg/mL) | significant increase in both FS and CO | agonist character on Gαi1 (hAPJ receptor [1]): full agonists; agonist character on β-arrestin (hAPJ receptor [2]): partial agonists; half-life at […] ([6]; Table I, 37° C., up to 24 h, read-out: Half-life in vitro (converted)): > 24 h; half-life at […] ([6]; Table V, read-out: Half-life t1/2): > 24 h; level at 5 min (in vivo; [8]): 36100 ng/mL; level at 4 h (in vivo; [8]): 8600 ng/mL; effect on blood pressure [3]: no effect; CO increase from baseline (Sprague-Dawley rats; s.c. 2 μmol/kg, 6 h): 16%; FS increase (Sprague-Dawley rats; s.c. 2 μmol/kg, 6 h): 17%
CCCC[C@H](NC(=O)[C@@H]1CCCN1C(=O)CNC(=O)[C@H](CCCCN)NC(=O)[C@@H]1Cc2cncn2CC=CC[C@H](NC(=O)[C@H](CCCNC(=N)N)NC(=O)[C@@H]2CCC(=O)N2)C(=O)N[C@@H](CCCNC(=N)N)C(=O)N[C@@H](CC(C)C)C(=O)N[C@@H](CO)C(=O)N1)C(=O)N1CCC[C@H]1C(=O)N[C@@H](Cc1ccccc1)C(=O)O [Compound 15, Pyr-R-c[X-R-L-S-Alh]c-K-G-P-Nle-P-F] | 99 | 115 | 115 | −40 | – | – | –
CC(C)C[C@@H]1NC(=O)[C@H](CCCNC(=N)N)NC(=O)[C@@H](N)CC=CC[C@@H](C(=O)N[C@@H](CCCCN)C(=O)NCC(=O)N2CCC[C@H]2C(=O)N[C@H](Cc2cccc3ccccc23)C(=O)O)NC(=O)[C@H](CO)NC1=O [Compound 42, NH2-c[X-R-L-S-X]c-K-G-P-(D-1Nal)] | 103 | 70 | 70 | −24 | 1.33 ± 0.18 min*(mg/mL) | significant increase only in FS | agonist character on Gαi1 (hAPJ receptor [1]): full agonists; agonist character on β-arrestin (hAPJ receptor [2]): partial agonists; plasma presence at 4 h (in vivo; 3 mg/kg): completely cleared from plasma
CSCC[C@H](NC(=O)[C@@H]1CCCN1C(=O)CNC(=O)[C@H](CCCCN)NC(=O)[C@H](Cc1cnc[nH]1)NC(=O)[C@H](CO)NC(=O)[C@H](CC(C)C)NC(=O)[C@H](CCCNC(=N)N)NC(=O)[C@@H]1CCCN1C(=O)[C@H](CCCNC(=N)N)NC(=O)[C@@H]1CCC(=O)N1)C(=O)N1CCC[C@H]1C(=O)N[C@@H](Cc1ccccc1)C(=O)O [Compound 60, Pyr-R-P-R-L-S-H-K-G-P-M-P-F, reference compound] | – | – | – | – | 0.0002 ± 0.0001 min*(mg/mL) | no observable effect | completely disappeared after (in vivo; i.v. 3 mg/kg): 5 min; clearance (in vivo; [8]): > 100 mL/min/kg
CCCC[C@H](NC(=O)[C@@H]1CCCN1C(=O)CNC(=O)[C@H](CCCCN)NC(=O)[C@@H]1CC=CC[C@H](N)C(=O)N[C@@H](CCCNC(=N)N)C(=O)N[C@@H](CC(C)C)C(=O)N[C@@H](CO)C(=O)N1)C(=O)O [Compound 29, NH2-c[X-R-L-S-X]c-K-G-P-Nle] | 99 | 69 | 69 | −13 | – | – | times less stable than 20 [6]: 3 times; times less stable than full-length analog 13 [6]: 5 times
H-[AllylGly]RLS[AllylGly]KGP[d1Nal] (staple 1-5) [Compound 42 (KT04-43)] | – | – | – | – | – | – | Gαi1 Emax (%) [7]: 103%; Ki [5]: 0.6 nM
